Converted amounts (≈) assume the structure as drawn.
Tests used:
Format in all cases: cell-based
[1] = test system: Malassezia pachydermatis (IFM56528); test: Antifungal activity test, inhibitory concentration by WST-8 viability in 96-well plate (Test Example 11); conditions: M. pachydermatis IFM56528, 32° C. for 72 hours; for MIC: viability 0%, read-out: Inhibitory concentration MIC100; for MIC50: viability 50%
Procedure: Test Example 11: Antifungal Activity Test
Test Compounds: Compound No. 1 and Compound No. 6
Test Microbial Strain: Malassezia Pachydermatis (IFM56528)
The Malassezia microbe (Malassezia pachydermatis) cultured for 5 to 7 days in a Sabouraud dextrose medium (1% peptone, 4% dextrose) was suspended in physiological saline and a Malassezia microbe suspension was prepared in such a way as to have an absorbance of 0.0025 at 600 nm. The microbe suspension was placed in a 96-well plate at 190 µL/well, and 10 µL of the test compound dissolved in DMSO was added thereto in such a way as to provide a final concentration of 500, 250, 125, 62.5, 31.25, 16, 8, 4, 2, 1, or 0.5 ppm, and the 96-well plate was subjected to culturing at 32° C. for 72 hours. After culturing, 20 µL each of WST-8 (viable cell counting reagent, manufactured by Nacalai Tesque, Inc.) was added, and the 96-well plate was kept warm at 32° C. for 5 hours to develop a color. The absorbance at 450 nm was measured using a microplate reader (SpectraMax M2, manufactured by Molecular Devices, LLC). The absorbance of a well to which the test compound was added (absorbance in the inventive plot) and the absorbance of a well in the solvent to which the test compound was not added (absorbance in the non-agent treated plot) were measured, the viability (%) of the Malassezia microbe was determined according to the following expression, and the agent concentration at which the viability was 0% was defined as the minimum inhibitory concentration (MIC100). Further, the agent concentration at which the viability was 50% was defined as the half inhibitory concentration (MIC50).
[…] = [(absorbance in non-agent treated plot - absorbance in inventive plot)/absorbance in non-agent treated plot] × 100

[2] = test system: Staphylococcus pseudointermedius (JCM 17571); test: Antimicrobial activity test, minimum bactericidal concentration after 1 minute contact (Test Example 6); conditions: JCM17571, S. pseudintermedius JCM 17571, then LB medium 30° C. for 72 hours, read-out: Minimum bactericidal concentration (MBC100)
Procedure: Test Example 6: Antimicrobial Activity test Test Compound: Compound No. 6 Test Microbial Strain: Staphylococcus Pseudointermedius (JCM 17571) The staphylococcus (Staphylococcus pseudointermedius) cultured for 24 hours on a Luria Broth (LB) agar medium plate (peptone, yeast extract, sodium chloride, agar, Invitrogen) was suspended in physiological saline, and a suspension thereof was prepared in such a way as to have an absorbance of 0.025 at 600 nm. Thereto, the test compound dissolved in DMSO was added in such a way as to provide a final concentration of 200, 100, 50, or 25 ppm, and after 1 minute, 10 µL of the suspension and 10 mL of physiological saline were placed in a syringe and stirred, and the syringe was connected to a 37 mm Quality Monitor (manufactured by Pall Corporation) followed by filtration and washing twice with 10 mL of physiological saline. The membrane filter was impregnated as it was with an LB medium and subjected to culturing at 30° C. for 72 hours, the presence or absence of colony growth was investigated, and the minimum bactericidal concentration (MBC100) was determined.

[3] = test system: Arthroderma vanbreuseghemii (TIMM2789); test: Antifungal activity test, minimum inhibitory concentration (Test Example 9); conditions: Trichophyton mentagrophytes, Sabouraud media, 28° C. for 72 hours, read-out: Minimum inhibitory concentration (MIC100)
Procedure: Test Example 9: Antifungal Activity Test Test Compound: Compound No. 1 Test Microbial Strain: Arthroderma Vanbreuseghemii (TIMM2789) The microbial strain was cultured in a Sabouraud medium containing 500 µg/mL of cycloheximide and 50 µg/mL of chloramphenicol at 28° C. for 8 days, then spores were collected in physiological saline containing Tween80 (0.05% (v/v)), this was filtered through a cell strainer (φ40 µm), the spores were recovered from the filtrate by centrifugation (3500 rpm, 5 minutes) and washed twice with physiological saline, and then a spore suspension was prepared (1 × 10^7 spores/mL). 10 µL of the spore suspension was inoculated into Sabouraud media to which compound No. 1 dissolved in DMSO was added to have various concentrations.

[4] = test system: M. sympodialis (IMF48588 strain); test: Antimicrobial activity against microbes of genus Malassezia: colony formation inhibition (Test Example 2); conditions: 1 min, final concentration 500 ppm, 1 minute contact, read-out: Colony formation inhibition rate (%)
Procedure: (§1) The Malassezia microbe (Malassezia pachydermatis) cultured for 5 to 7 days in a Sabouraud medium (1% peptone, 4% dextrin, 1.5% agar) supplemented with 0.5% of Tween 40 (polyoxyethylene sorbitan monopalmitate: manufactured by Kanto Chemical Co., Inc.) was suspended in physiological saline and a suspension thereof was prepared in such a way as to have an absorbance of 0.25 at 550 nm. Thereto, the test compound dissolved in DMSO was added in such a way as to provide a final concentration of 500 ppm, and after 1 minute, 10 µL of the suspension and 10 mL of physiological saline were placed in a syringe and stirred, and the syringe was connected to a 37 mm Quality Monitor (manufactured by Pall Corporation) followed by filtration and washing. The membrane filter was impregnated as it was with a Sabouraud medium supplemented with 1% of Tween80 (polyoxyethylene sorbitan monooleate: manufactured by Kanto Chemical Co., Ltd.) and subjected to culturing at 32° C. for 72 hours, the number of colonies formed there (number of colonies in the inventive plot) and the number of colonies in a solvent to which the test compound was not added (the number of colonies in the non-agent treated plot) were measured, and the colony formation inhibition rate (%) was determined according to the following expression. Colony formation inhibition rate (%) = [(number of colonies in non-agent treated plot - number of colonies in inventive plot)/number of colonies in non-agent treated plot] × 100 Test compound: Compound No. 1 (final concentration of 500 ppm) Test microbial strains: Malassezia pachydermatis (IFM56528 strain), M. furfur (IMF55951 strain), M. sympodialis (IMF48588 strain), M. globosa (IMF51946 strain), and M. restricta (IMF55992 strain) The colony formation inhibition rate for each of the test strains was determined by the same method as in Test Example 1.

[5] = test system: M. restricta (IMF55992 strain); test: as above; conditions: 1 min, final concentration 500 ppm, 1 minute contact, read-out: Colony formation inhibition rate (%)
Procedure: as §1

[6] = test system: M. globosa (IMF51946 strain); test: as above; conditions: 1 min, final concentration 500 ppm, 1 minute contact, read-out: Colony formation inhibition rate (%)
Procedure: as §1

[7] = test system: M. furfur (IMF55951 strain); test: as above; conditions: 1 min, final concentration 500 ppm, 1 minute contact, read-out: Colony formation inhibition rate (%)
Procedure: as §1

| SMILES | MIC90 [1] [µg/mL] | MIC [1] [µg/mL] | MIC50 [1] [µg/mL] | MBC [2] [µg/mL] | MIC [3] [µg/mL] | inhibition at 500 ppm [4] [%] | inhibition at 500 ppm [5] [%] | inhibition at 500 ppm [6] [%] | inhibition at 500 ppm [7] [%] |
| --- | --- | --- | --- | --- | --- | --- | --- | --- | --- |
| Cc1ccc(-c2nc(C#N)[nH]c2Cl)cc1Cl [Compound No. 6, 5-chloro-4-(3-chloro-4-methylphenyl)-1H-imidazole-2-carbonitrile] | 4 (≈ 15.9 µM) | 4 (≈ 15.9 µM) | 2 (≈ 7.93 µM) | 50 (≈ 198 µM) |  |  |  |  |  |
| Cc1ccc(-c2nc(C#N)[nH]c2Cl)cc1 [Compound No. 1, 5-Chloro-4-(4-methylphenyl)-1H-imidazole-2-carbonitrile] | 16 (≈ 73.5 µM) | 16 (≈ 73.5 µM) | 8 (≈ 36.8 µM) |  | 10 (≈ 45.9 µM) | 100 | 100 | 97 | 100 |
